Values quoted from earlier work, collected in patent US7622458B2, “Combination of ET-743 and a 5-fluorouracil pro-drug for cancer treatment” (Pharma Mar, S.A.U., priority 2004, dated 2009).

Legend:
[1] = system: sarcoma and breast and ovarian carcinoma; settings: 1-, 3-, 24-, 72-hour i.v. infusion and 1 hour daily x5 schedules; patients with sarcoma and breast and ovarian carcinoma
[2] = system: human tumor xenografts, including melanoma and ovarian and breast carcinoma; settings: xenografts grown in athymic mice

COc1cc2c(cc1O)CCN[C@]21CS[C@@H]2c3c(OC(C)=O)c(C)c4c(c3[C@H](COC1=O)N1[C@@H]2[C@H]2c3c(cc(C)c(OC)c3O)C[C@@H]([C@@H]1O)N2C)OCO4 [ET-743, ecteinascidin 743]
Clinical responses in phase I studies [1]: Promising responses
Antineoplastic activity against human tumor xenografts [2]: potent antineoplastic activity
